Consider 3 compounds from the NIST ThermoML archive (doi:10.1016/j.jct.2016.12.030).

Molecules are shown by their SMILES. Numbers after ± are expanded uncertainties.

The conditions of this series: Crystal; DTA.

`CCCCCC` [hexane]: the Normal melting temperature was -95.76 ± 0.5 °C.

In the case of `[Hg]` [mercury], the Normal melting temperature is -38.86 ± 0.5 °C.

Turning to `O` [water], the Normal melting temperature turned out to be 0.00 ± 0.5 °C.
